Data: PubChem BioAssay AID2060903 (Molecular Pharmacology Branch, DTP, NCI, 2025)
Several values for one entry are separate records, joined by “and”; a condition that tells them apart may be missing. Equal values may be shown once.

System: 377384-186-R-J1-PDC complex spheroid viability
Experiment: Anticancer human tumor 377384-186-R-J1-PDC patient-derived pancreatic carcinoma cell line growth inhibition [RAS]
Details: for viability, T/C: stronger effect = lower value
Outline: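 Tumour cells grown as complex spheroids with HUVEC endothelial cells and mesenchymal stem cells, treated with RAS pathway inhibitor combinations. Each agent spans half-log steps from near clinical Cmax, or 10 microM where Cmax is unknown.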
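Note: spheroids exposed to compounds for seven days before readout.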

SMILES: Nc1ccn(C2OC(CO)C(O)C2(F)F)c(=O)n1 (stereo not given)
- viability, T/C (compound 0.01 µM): 36.6% [middle of 4 runs]
- viability, T/C (compound 0.0316 µM): 21.4% and 7.24% and 10.1% (2×)
- viability, T/C (compound 0.1 µM): 5.39% [middle of 4 runs]
- viability, T/C (compound 0.316 µM): 4.06% [middle of 4 runs]
- viability, T/C (compound 1 µM): 3.19% [middle of 4 runs]
- IC50 (curve of compound): 6.44 nM [middle of 4 runs]

SMILES: C=CC(=O)Nc1cc(Nc2nccc(-c3cn(C)c4ccccc34)n2)c(OC)cc1N(C)CCN(C)C + CCn1c(-c2cc(N3CCN(C)CC3)cnc2C(C)OC)c2c3cc(ccc31)-c1csc(n1)CC(NC(=O)C1CC1C)C(=O)N1CCCC(N1)C(=O)OCC(C)(C)C2
- IC50 (curve of first compound, second compound 0.000949 µM): < 3.16 nM
- IC50 (curve of first compound, second compound 0.003 µM): < 3.16 nM
- IC50 (curve of first compound, second compound 0.00949 µM): < 3.16 nM
- IC50 (curve of first compound, second compound 0.03 µM): < 3.16 nM
- IC50 (curve of first compound, second compound 0.0949 µM): < 3.16 nM
- IC50 (curve of first compound, second compound 0.3 µM): < 3.16 nM
- viability, T/C (second compound 0.000949 µM, first compound 0.00316 µM): 30%
- viability, T/C (second compound 0.000949 µM, first compound 0.01 µM): 45%
- viability, T/C (second compound 0.000949 µM, first compound 0.0316 µM): 32.3%
- viability, T/C (second compound 0.000949 µM, first compound 0.1 µM): 27.5%
- viability, T/C (second compound 0.000949 µM, first compound 0.316 µM): 12.1%
- viability, T/C (second compound 0.000949 µM, first compound 1 µM): 4.35%
- viability, T/C (second compound 0.003 µM, first compound 0.00316 µM): 17.5%
- viability, T/C (second compound 0.003 µM, first compound 0.01 µM): 17.3%
- viability, T/C (second compound 0.003 µM, first compound 0.0316 µM): 11.2%
- viability, T/C (second compound 0.003 µM, first compound 0.1 µM): 4.88%
- viability, T/C (second compound 0.003 µM, first compound 0.316 µM): 2.22%
- viability, T/C (second compound 0.003 µM, first compound 1 µM): 1.8%
- viability, T/C (second compound 0.00949 µM, first compound 0.00316 µM): 4.04%
- viability, T/C (second compound 0.00949 µM, first compound 0.01 µM): 11%
- viability, T/C (second compound 0.00949 µM, first compound 0.0316 µM): 3.16%
- viability, T/C (second compound 0.00949 µM, first compound 0.1 µM): 3.12%
- viability, T/C (second compound 0.00949 µM, first compound 0.316 µM): 1.55%
- viability, T/C (second compound 0.00949 µM, first compound 1 µM): 1.78%
- viability, T/C (second compound 0.03 µM, first compound 0.00316 µM): 2.43%
- viability, T/C (second compound 0.03 µM, first compound 0.01 µM): 1.94%
- viability, T/C (second compound 0.03 µM, first compound 0.0316 µM): 1.75%
- viability, T/C (second compound 0.03 µM, first compound 0.1 µM): 2.15%
- viability, T/C (second compound 0.03 µM, first compound 0.316 µM): 2.02%
- viability, T/C (second compound 0.03 µM, first compound 1 µM): 1.52%
- viability, T/C (second compound 0.0949 µM, first compound 0.00316 µM): 2.3%
- viability, T/C (second compound 0.0949 µM, first compound 0.01 µM): 1.82%
- viability, T/C (second compound 0.0949 µM, first compound 0.0316 µM): 1.99%
- viability, T/C (second compound 0.0949 µM, first compound 0.1 µM): 2.1%
- viability, T/C (second compound 0.0949 µM, first compound 0.316 µM): 1.5%
- viability, T/C (second compound 0.0949 µM, first compound 1 µM): 0.91%
- viability, T/C (second compound 0.3 µM, first compound 0.00316 µM): 2.2%
- viability, T/C (second compound 0.3 µM, first compound 0.01 µM): 1.68%
- viability, T/C (second compound 0.3 µM, first compound 0.0316 µM): 1.82%
- viability, T/C (second compound 0.3 µM, first compound 0.1 µM): 1.46%
- viability, T/C (second compound 0.3 µM, first compound 0.316 µM): 1.28%
- viability, T/C (second compound 0.3 µM, first compound 1 µM): 0.91%

SMILES: Nc1ccn(C2OC(CO)C(O)C2(F)F)c(=O)n1 (stereo not given) + C#Cc1c(F)ccc2cc(O)cc(-c3ncc4c(N5CC6CCC(C5)N6)nc(OCC56CCCN5CC(F)C6)nc4c3F)c12
- IC50 (curve of first compound, second compound 0.0316 µM): < 3.16 nM
- IC50 (curve of first compound, second compound 0.1 µM): < 3.16 nM
- IC50 (curve of first compound, second compound 0.316 µM): < 3.16 nM
- IC50 (curve of first compound, second compound 1 µM): < 3.16 nM
- IC50 (curve of first compound, second compound 3.16 µM): < 3.16 nM
- IC50 (curve of first compound, second compound 10 µM): < 3.16 nM
- viability, T/C (second compound 0.0316 µM, first compound 0.00316 µM): 18.7%
- viability, T/C (second compound 0.0316 µM, first compound 0.01 µM): 10.9%
- viability, T/C (second compound 0.0316 µM, first compound 0.0316 µM): 5.1%
- viability, T/C (second compound 0.0316 µM, first compound 0.1 µM): 2.32%
- viability, T/C (second compound 0.0316 µM, first compound 0.316 µM): 1.53%
- viability, T/C (second compound 0.0316 µM, first compound 1 µM): 1.48%
- viability, T/C (second compound 0.1 µM, first compound 0.00316 µM): 10.6%
- viability, T/C (second compound 0.1 µM, first compound 0.01 µM): 5.99%
- viability, T/C (second compound 0.1 µM, first compound 0.0316 µM): 3.67%
- viability, T/C (second compound 0.1 µM, first compound 0.1 µM): 2.25%
- viability, T/C (second compound 0.1 µM, first compound 0.316 µM): 1.8%
- viability, T/C (second compound 0.1 µM, first compound 1 µM): 1.59%
- viability, T/C (second compound 0.316 µM, first compound 0.00316 µM): 3.96%
- viability, T/C (second compound 0.316 µM, first compound 0.01 µM): 3.01%
- viability, T/C (second compound 0.316 µM, first compound 0.0316 µM): 2.14%
- viability, T/C (second compound 0.316 µM, first compound 0.1 µM): 1.91%
- viability, T/C (second compound 0.316 µM, first compound 0.316 µM): 1.53%
- viability, T/C (second compound 0.316 µM, first compound 1 µM): 1.47%
- viability, T/C (second compound 1 µM, first compound 0.00316 µM): 2.36%
- viability, T/C (second compound 1 µM, first compound 0.01 µM): 2.41%
- viability, T/C (second compound 1 µM, first compound 0.0316 µM): 1.7%
- viability, T/C (second compound 1 µM, first compound 0.1 µM): 1.46%
- viability, T/C (second compound 1 µM, first compound 0.316 µM): 1.44%
- viability, T/C (second compound 1 µM, first compound 1 µM): 1.36%
- viability, T/C (second compound 3.16 µM, first compound 0.00316 µM): 2.1%
- viability, T/C (second compound 3.16 µM, first compound 0.01 µM): 1.41%
- viability, T/C (second compound 3.16 µM, first compound 0.0316 µM): 1.83%
- viability, T/C (second compound 3.16 µM, first compound 0.1 µM): 1.8%
- viability, T/C (second compound 3.16 µM, first compound 0.316 µM): 1.48%
- viability, T/C (second compound 3.16 µM, first compound 1 µM): 1.3%
- viability, T/C (second compound 10 µM, first compound 0.00316 µM): 1.37%
- viability, T/C (second compound 10 µM, first compound 0.01 µM): 1.08%
- viability, T/C (second compound 10 µM, first compound 0.0316 µM): 1.21%
- viability, T/C (second compound 10 µM, first compound 0.1 µM): 1.3%
- viability, T/C (second compound 10 µM, first compound 0.316 µM): 1.62%
- viability, T/C (second compound 10 µM, first compound 1 µM): 1.15%
